The assay has as its target T1, human 11βHSD1 enzyme (Homo sapiens, UniProt P28845).
T1 construct: N terminal 6-His tagged full length human 11βHSD1 enzyme; 6-His (N); made in house
As to the kind of experiment: 11βHSD1 competitive HTRF assay (conversion of cortisone to cortisol). In kind it is biochemical. Particulars: recombinant N terminal 6-His tagged full length human 11βHSD1; cortisone 160 nM; 25 minutes at 37° C.; pH 7.5. As to the method:
The evaluation of compounds described herein was carried out using a baculovirus expressed N terminal 6-His tagged full length human 11βHSD1 enzyme (*1). The enzyme was purified from a detergent solublised cell lysate, using a copper chelate column. Inhibitors of 11βHSD1 reduce the conversion of cortisone to cortisol, which is identified by an increase in signal, in the above assay.
Compounds to be tested were dissolved in dimethyl sulphoxide (DMSO) to 10 mM and diluted further in assay buffer containing 1% DMSO to 10 fold the final assay concentration. Diluted compounds were then plated into black 384 well plates (Matrix, Hudson N.H., USA).
The assay plates were incubated for 25 minutes at 37° C. after which time the reaction was stopped by the addition of 10 μl of 0.5 mM glycerrhetinic acid plus conjugated cortisol (D2**). 10 μl of anti-cortisol Cryptate was then added and the plates sealed and incubated for 6 hours at room temperature. Fluorescence at 665 nm and 620 nm was measured and the 665 nm:620 nm ratio calculated using an Envision plate reader.
**D2 is a cortisol tracer which competes with native cortisol produced in the reaction for the monoclonal anti-cortisol antibody labelled with europium-cryptate. The antibody will fluoresce when it is bound to the cortisol tracer complex (D2 labelled with cortisol and glycyrrhetinic acid coupled together). Thus providing an accurate measure of 11beta-HSD1 activity.
(TR-FRET usually uses a lanthanide donor and a delayed reading to cut background.)

Structures are written as SMILES.

T1 sequence (P28845 whole entry): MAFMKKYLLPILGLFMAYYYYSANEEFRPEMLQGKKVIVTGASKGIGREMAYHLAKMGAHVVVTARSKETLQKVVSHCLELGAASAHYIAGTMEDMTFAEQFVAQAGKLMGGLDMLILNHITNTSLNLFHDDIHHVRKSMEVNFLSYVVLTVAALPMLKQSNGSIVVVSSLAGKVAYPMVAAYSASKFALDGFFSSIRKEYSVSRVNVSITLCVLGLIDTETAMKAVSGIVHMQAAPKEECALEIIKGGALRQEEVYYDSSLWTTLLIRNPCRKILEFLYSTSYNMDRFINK

In the case of `O=C(N[C@H]1C2CC3CC1C[C@@](O)(C3)C2)c1cnc(N[C@@H]2CCOC2)nc1N1CCCC1` [Example 37, N-(5-hydroxy-2-adamantyl)-4-pyrrolidin-1-yl-2-[[(3R)-tetrahydrofuran-3-yl]amino]pyrimidine-5-carboxamide], the IC50 was found to be 777 nM.
Consider `O=C(N[C@H]1C2CC3CC1C[C@@](O)(C3)C2)c1cnc(N[C@@H]2CCOC2)nc1C(F)(F)F` [Example 22, N-(5-hydroxy-2-adamantyl)-2-[[(3R)-oxolan-3-yl]amino]-4-(trifluoromethyl)pyrimidine-5-carboxamide], for which the IC50 was 25 nM.
Consider `O=C(N[C@H]1C2CC3CC1C[C@@](C(=O)O)(C3)C2)c1cnc(N[C@H]2CCOC2)nc1C1CCCC1` [Example 44, 4-[[4-cyclopentyl-2-[[(3S)-tetrahydrofuran-3-yl]amino]pyrimidine-5-carbonyl]amino]adamantane-1-carboxylic acid], for which the IC50 is 424 nM.
`CCOc1nc(N[C@H]2CCOC2)ncc1C(=O)N[C@H]1C2CC3CC1C[C@@](O)(C3)C2` [Example 25, 4-Ethoxy-N-(5-hydroxy-2-adamantyl)-2-[[(3S)-tetrahydrofuran-3-yl]amino]pyrimidine-5-carboxamide]: the IC50 was 37 nM.
Take `O=C(N[C@H]1C2CC3CC1C[C@@](O)(C3)C2)c1cnc(N[C@H]2CCOC2)nc1N1CCCC1` [Example 38, N-(5-hydroxy-2-adamantyl)-4-pyrrolidin-1-yl-2-[[(3S)-tetrahydrofuran-3-yl]amino]pyrimidine-5-carboxamide]: the half-maximal inhibitory concentration (IC50) stood at 1600 nM.
As to `CN(C(=O)c1cnc(N[C@@H]2CCOC2)nc1C1CCCC1)[C@H]1C2CC3CC1C[C@@](O)(C3)C2` [Example 41, 4-Cyclopentyl-N-(5-hydroxy-2-adamantyl)-N-methyl-2-[[(3R)-oxolan-3-yl]amino]pyrimidine-5-carboxamide], the IC50 was determined as 46 nM.
For `CCCOc1nc(N[C@@H]2CCOC2)ncc1C(=O)NC1C2CC3CC1CC(O)(C3)C2` (stereo partly drawn) [Example 33, N-(5-hydroxy-2-adamantyl)-4-propoxy-2-[[(3R)-tetrahydrofuran-3-yl]amino]pyrimidine-5-carboxamide], the IC50 is 19 nM.
For the compound `CN1CC(Nc2ncc(C(=O)N[C@H]3C4CC5CC3C[C@@](O)(C5)C4)c(C3CCCC3)n2)CC1=O` (stereo partly drawn) [Example 16, 4-cyclopentyl-N-(5-hydroxy-2-adamantyl)-2-[(1-methyl-5-oxo-pyrrolidin-3-yl)amino]pyrimidine-5-carboxamide], the IC50 was determined as 20 nM.
Take `CCCOc1nc(N[C@H]2CCOC2)ncc1C(=O)N[C@H]1C2CC3CC1C[C@@](O)(C3)C2` [Example 34, N-(5-hydroxy-2-adamantyl)-4-propoxy-2-[[(3S)-tetrahydrofuran-3-yl]amino]pyrimidine-5-carboxamide]: the IC50 turned out to be 21 nM.
Consider `O=C(N[C@H]1C2CC3CC1C[C@@](O)(C3)C2)c1cnc(N[C@H]2CCOC2)nc1-n1cccn1` [Example 40, N-(5-hydroxy-2-adamantyl)-4-pyrazol-1-yl-2-[[(3S)-tetrahydrofuran-3-yl]amino]pyrimidine-5-carboxamide], for which the IC50 was 2270 nM.
In the case of `CC(C)c1nc(N[C@@H]2CCOC2)ncc1C(=O)N[C@H]1C2CC3CC1C[C@@](O)(C3)C2` [Example 21, N-(5-hydroxy-2-adamantyl)-4-isopropyl-2-[[(3R)-tetrahydrofuran-3-yl]amino]pyrimidine-5-carboxamide], the IC50 amounted to 42 nM.
The value for `CS(=O)(=O)[C@]12CC3CC(C1)[C@H](NC(=O)c1cnc(N[C@H]4CCOC4)nc1C1CCCC1)C(C3)C2` [Example 45, 4-cyclopentyl-N-(5-methylsulfonyl-2-adamantyl)-2-[[(3S)-tetrahydrofuran-3-yl]amino]pyrimidine-5-carboxamide] was 273 nM; that for `O=C(N[C@H]1C2CC3CC1C[C@@](O)(C3)C2)c1cnc(N[C@H]2CCOC2)nc1C(F)(F)F` [Example 23, N-(5-hydroxy-2-adamantyl)-2-[[(3S)-oxolan-3-yl]amino]-4-(trifluoromethyl)pyrimidine-5-carboxamide] was 95 nM; that for `CCOc1nc(N[C@@H]2CCOC2)ncc1C(=O)N[C@H]1C2CC3CC1C[C@@](O)(C3)C2` [Example 24, 4-Ethoxy-N-(5-hydroxy-2-adamantyl)-2-[[(3R)-tetrahydrofuran-3-yl]amino]pyrimidine-5-carboxamide] was 45 nM.
With `O=C(N[C@H]1C2CC3CC1C[C@@](O)(C3)C2)c1cnc(N[C@@H]2CCOC2)nc1-n1cccn1` [Example 39, N-(5-hydroxy-2-adamantyl)-4-pyrazol-1-yl-2-[[(3R)-tetrahydrofuran-3-yl]amino]pyrimidine-5-carboxamide] the figure was 708 nM; with `CN(C(=O)c1cnc(N[C@H]2CCOC2)nc1C1CCCC1)[C@H]1C2CC3CC1C[C@@](O)(C3)C2` [Example 42, 4-cyclopentyl-N-(5-hydroxy-2-adamantyl)-N-methyl-2-[[(3S)-oxolan-3-yl]amino]pyrimidine-5-carboxamide], 32 nM; with `O=C(N[C@H]1C2CC3CC1C[C@@](O)(C3)C2)c1cnc(NC2CCS(=O)(=O)C2)nc1C1CCCC1` (stereo partly drawn) [Example 5, 4-cyclopentyl-2-[(1,1-dioxothiolan-3-yl)amino]-N-(5-hydroxy-2-adamantyl)pyrimidine-5-carboxamide], 24 nM.
As to `NC(=O)[C@]12CC3CC(C1)[C@H](NC(=O)c1cnc(N[C@H]4CCOC4)nc1C1CCCC1)C(C3)C2` [Example 43, N-(5-carbamoyl-2-adamantyl)-4-cyclopentyl-2-[[(3S)-tetrahydrofuran-3-yl]amino]pyrimidine-5-carboxamide], the IC50 is 17 nM.
On to `CN1C(=O)CC[C@@H]1CNc1ncc(C(=O)N[C@H]2C3CC4CC2C[C@@](O)(C4)C3)c(C2CCCC2)n1` [Example 18, 4-cyclopentyl-N-(5-hydroxy-2-adamantyl)-2-[[(2R)-1-methyl-5-oxo-pyrrolidin-2-yl]methylamino]pyrimidine-5-carboxamide], for which the IC50 is 23 nM.
Turning to `CC(C)c1nc(N[C@H]2CCOC2)ncc1C(=O)N[C@H]1C2CC3CC1C[C@@](O)(C3)C2` [Example 20, N-(5-hydroxy-2-adamantyl)-4-isopropyl-2-[[(3S)-tetrahydrofuran-3-yl]amino]pyrimidine-5-carboxamide], the IC50 worked out at 46 nM.
With `CCN1CC(Nc2ncc(C(=O)N[C@H]3C4CC5CC3C[C@@](O)(C5)C4)c(C3CCCC3)n2)CC1=O` (stereo partly drawn) [Example 17, 4-cyclopentyl-2-[(1-ethyl-5-oxo-pyrrolidin-3-yl)amino]-N-(5-hydroxy-2-adamantyl)pyrimidine-5-carboxamide], the IC50 is 15 nM.

As a reminder, the IC50 is the concentration at which inhibition is half-maximal.

The values above are taken from patent US20110092526A1, “Adamantyl Iminocarbonyl-Substituted Pyrimidines As Inhibitors Of 11-Beta-HSD1 826” (ASTRAZENECA AB, priority 2009, published 2011).
